In US20240415825A1, “COMPOUNDS FOR THE TREATMENT OF MALARIA” (FUNDACIÓ INSTITUT DE BIOENGINYERIA DE CATALUNYA, priority 2021, published 2024):
Like-named read-outs stand apart in the source and are kept apart here.

Experiments:
[1] = Cytotoxicity (CC50) and in vitro therapeutic index; type: cell-based, human; details: human umbilical vein endothelial cells (HUVEC); human umbilical vein endothelial cell cultures
[2] = system: human umbilical vein endothelial cell cultures; assay: Cytotoxicity (CC50) and in vitro therapeutic index; type: cell-based
[3] = system: P. falciparum ring or trophozoite stage cultures; assay: Stage of growth inhibition analysis; type: cell-based, Plasmodium falciparum; details: added to ring stages at its IC80
Method: For stage of growth inhibition analysis, P. falciparum cultures were synchronized at ring or trophozoite stages by repeated treatment with 5% sorbitol or 70% Percoll, respectively. Half of each culture remained untreated and the other half was treated with the IC80 of AID-X-2020. At different time points, culture samples were stained with Giemsa and the number of rings, early and mature trophozoites and schizonts was counted by microscopic examination of at least 100 pRBCs for each sample. Pictures were taken with a Nikon Eclipse 50i microscope equipped with a DS-Fi1 camera (Nikon).

[4] = system: artemisinin-resistant P. falciparum strains (3D7 and Cam 3.11 with K13 mutations); assay: Growth inhibition, artemisinin-resistant strains; type: cell-based; details: Plasmodium falciparum, 3D7, read-out: IC50 in artemisinin-resistant strains
Excerpt: P. falciparum parasites of chloroquine-sensitive (3D7 strain) and chloroquine- and artemisinin-resistant strains were processed as described in section 1.1.3 of EXAMPLE 1.
In particular, the P. falciparum resistant strains were the following: (1) strain W2 MRA-157 (BEI Resources, managed by ATCC) which is chloroquine-resistant; (2) strains 3D7 harboring the K13 mutations associated to artemisinin resistance, either M5791 or R561H (both provided by Dr. David A. Fidock and referenced in Stokes, B. H. et al., 2021); (3) Cam 3.11 strain which is chloroquine and sulfadoxine/pyrimethamine-resistant; and (4) Cam 3.11 strain modified to carry K13 mutations associated to artemisinin-resistant strains, either R561H or R539T, therefore being multiresistant strains. All Cam 3.11 strains (3) and (4) were provided by Dr. David A. Fidock and are referenced in Straimer, J. et al., 2015 and Stokes, B. H. et al., 2021.
Then, the required amount of AID-X-2020 was added to each well at different concentrations (0.0001, 0.001, 0.01, 1 and 10 μM) and triplicates.

[5] = target: T1, preformed Aβ40 fibrils (Homo sapiens, UniProt P05067); assay: Disaggregation of preformed Aβ40 fibrils; type: biochemical; details: 24 h after fibril formation, ThT and TEM
T1 construct: Amyloid-β peptide fragment 1-40 (Aβ40); purchased GenScript
T1 sequence (P05067 672-711 limits assumed, species assumed): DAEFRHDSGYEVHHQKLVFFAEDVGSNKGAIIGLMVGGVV
Method: To test the effect of AID-X-2020 on already formed amyloid fibrils, Aβ40 DMSO solutions were diluted to 25 μM in PBS and incubated as above in order to allow fibril formation. Then, AID-X-2020 was added at different concentrations (0.1 μM AID-X-2020, 1 μM AID-X-2020 and 10 μM AID-X2020) and the mixture was incubated in the same conditions for another 24 h. The final samples always contained less than 5% DMSO to avoid interference of this solvent on Aβ40 amyloid fibril formation. Finally, ThT treatment and TEM analysis was performed as described in section 3.1 of EXAMPLE 3. The analysis of aggregation inhibition and disaggregation performed with aggregative peptides present in P. falciparum proteins were conducted in the same way.

[6] = system: P. falciparum cultures; assay: ThT analysis of protein aggregation in live P. falciparum cultures; type: cell-based, Plasmodium falciparum; details: 90 min with 90 nM, equal protein content
Method: After 90 min, 4 h and 30 h, a Percoll purification was done in order to isolate parasitized cells from uninfected RBCs. After Percoll purification, the pellets of late stage parasites and a control non-infected RBC suspension containing the same proportion of cells than the purified cultures were resuspended in 50 μl of lysis buffer (4.5 mg/ml NaCl in water supplemented with EDTA-free protease inhibitor cocktail, PIC, Hoffman-La Roche, Basel, Switzerland; 1 PIC tablet/10 ml water) and incubated overnight, at 4° C. under stirring, with the objective of releasing their inner content. After this time, lysed samples were spun down and the protein content in the supernatant was quantified with the bicinchoninic acid assay (Thermo Fisher Scientific), following the manufacturer's instructions. 30 μg of protein from each supernatant were further diluted with PBS to a final volume of 70 μl and plated on a 96-well black plate in triplicates. ThT fluorescence was measured as described above.

[7] = system: P. falciparum NF54-gexp02-Tom strain gametocytes; assay: microbe, parasite or virus in culture; type: cell-based; details: Plasmodium falciparum, NF54, 48 h
Method: Cultures of the P. falciparum NF54-gexp02-Tom strain (developed and authenticated by Portugaliza, H. P. et al., 2019 and kindly provided by Prof. Alfred Cortes), were maintained in standard conditions in RPMI medium supplemented with 0.5% Albumax II and 2 mM choline, synchronized in ring stages with sorbitol lysis, and diluted to 2% parasitemia. To trigger sexual conversion, choline was removed from the medium and cultures were maintained in the same conditions for 48 h after synchronization (cycle 0). In the next cycle (cycle 1), parasites were treated with 50 mM N-acetylglucosamine (GlcNac) in order to kill asexual parasites, and maintained in RPMI supplemented with 10% human serum. Medium was refreshed daily and GlcNac was kept during 4 days.
Controls of untreated parasites as well as of parasites treated with a lethal dose of chloroquine were prepared. Gametocytemia was monitored daily by light microscopy until the majority of parasites (˜90%) could be identified as stage V gametocytes. At that point, Giemsa smears of each well were prepared and mature gametocytes were manually counted (10,000 cells were counted for each replica by two investigators blinded to group assignment). […] Afterwards, the culture was treated for 48 h with the drugs and the gametocytemia determined as above.

For `CCN(CC)c1ccc(/C=C/c2cc[n+](CCCCCCCCCC[n+]3ccc(/C=C/c4ccc(N(CC)CC)cc4)c(C)c3)cc2C)cc1` [AID-X-2020, 1,1′-(decane-1,10-diyl)bis{4-[(E)-4-(diethylamino)styryl]-3-methylpyridin-1-ium} dibromide], the CC50 [1] was 3.4 µM, the “Therapeutic index in vitro” value ([2]; 50% cytotoxic concentration (CC50)/IC50 in 3D7 strain) was 23.3 and the “therapeutic index (CC50/IC50)” value ([2]; HUVEC CC50, text value) was 37.8. For the same molecule, the “stage of growth arrest” value [3] was “arrested the life cycle of the pathogen at trophozoite stage”, the IC50 [4] was 90 to 160 nM and the “concentration disassembling preformed Aβ40 fibrils” value [5] was greater than 90 nM. For the same molecule, the “ThT fluorescence of culture extracts” value [6] was “reduced emission spectrum”, the IC50 ([7]; read-out: IC50 on early gametocytes) was 95 ± 3 nM and the IC50 ([7]; read-out: IC50 on mature stage V (late) gametocytes) was 103 ± 3 nM.
